pIC50: −log10 of the molar value.

A word on the pIC50: it is the negative decadic logarithm of the IC50, by convention in mol/L.

Chain of Human recombinant Histone Deacetylase 8 (HDAC8) (Q9BY41 whole entry): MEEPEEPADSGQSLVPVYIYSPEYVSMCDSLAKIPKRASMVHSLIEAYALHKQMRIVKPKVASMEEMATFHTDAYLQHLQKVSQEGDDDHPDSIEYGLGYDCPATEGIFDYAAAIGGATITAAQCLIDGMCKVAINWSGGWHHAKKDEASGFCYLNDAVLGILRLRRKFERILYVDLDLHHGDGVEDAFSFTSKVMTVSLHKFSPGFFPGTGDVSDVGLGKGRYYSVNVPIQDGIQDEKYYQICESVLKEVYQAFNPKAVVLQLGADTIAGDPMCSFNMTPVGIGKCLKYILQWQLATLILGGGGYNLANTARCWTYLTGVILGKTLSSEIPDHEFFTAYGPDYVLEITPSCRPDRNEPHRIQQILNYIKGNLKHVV

In one assay the target is Human recombinant Histone Deacetylase 8 (HDAC8) (Homo sapiens (Human), UniProt Q9BY41). Description: HDAC8 Enzymatic Assay (HDAC-Glo I/II luminescence). The format is biochemical. Particulars: HDAC8; read-out: IC50. On the procedure:
HDAC-Glo™ I/II Assay Kit was purchased from Promega Corporation (Madison, Wis.), including the following components: HDAC-Glo I/II Buffer (25 mM Tris buffer, pH 8.0, supplemented with 137 mM: NaCl, 2.7 mM KCl, 1% v/v Triton X-100 and 1 mM: MgCl2), luminogenic substrates Boc-GAK(Ac)-aminoluciferin (HDAC-Glo I/II substrate), proprietary developer reagent (containing trypsin). Human recombinant Histone Deacetylase 8 (HDAC8) was purchased from Enzo Life Sciences (Plymouth Meeting, Pa.).
The HDAC8 reaction was performed at room temperature in white 384-well polystyrene, flat-bottom microtiter plate (Greiner Bio-one, Monroe, N.C.) in a final volume of 20 μL. Test compounds were first diluted serially in DMSO and 100 nL were transferred to the plate wells by Echo 550 (Labcyte, Sunnyvale, Calif.) before the addition of other reaction components. The final concentration of DMSO in the assay was 0.5%. The HDAC-Glo I/II assay reagent was prepared by rehydration of lyophilized HDAC-Glo I/II substrate in 10 mL. HDAC-Glo I/II assay buffer followed with the addition of 10 μL of developer reagent. 10 uL of 3 nM HDAC8 in the HDAC-Glo I/II assay buffer were first dispensed into the microliter plate containing the compounds and incubated at room temperature for 30 min. The reactions were initiated with the addition of 10 uL HDAC-Glo I/II assay reagent with Multidrop (Thermo, Waltham, Mass.). The final concentration of HDAC8 and HDAC-Glo I/II substrate in the reaction were 1.5 nM and 50 μM, respectively. The assay plate was mixed for 1 min by orbital shaking (500 rpm) and centrifuged for 1 min at 1500 rpm. After 15 min at room temperature, luminescence signals were measured on TopCount (Perkin Elmer). Wells with no compound served as the positive controls and wells containing no HDAC8 were used as negative controls. IC50 determination was performed by fitting the curve of percentage control activity versus the log of the compound concentration using the GraphPad Prism 6.0 software.
Regarding `O=C(NO)C(Cc1ccccc1)n1ncc2cc(Cl)ccc21` (centres unmarked) [Compound I-0001, 2-(5-Chloro-1H-indazol-1-yl)-N-hydroxy-3-phenylpropanamide], the pIC50 is 6.85.

Consider `O=C(NO)C(Cc1ccccc1)n1cc2cc(Cl)ccc2n1` (centres unmarked) [Compound I-0003, 2-(5-Chloro-2H-indazol-2-yl)-N-hydroxy-3-phenylpropanamide], for which the pIC50 is 6.47.

Consider `O=C(NO)C(Cc1ccccc1)n1nc2ccc(Cl)cc2c1C#CC1CC1` (centres unmarked) [Compound I-0005, 2-[5-Chloro-3-(cyclopropylethynyl)-2H-indazol-2-yl]-N-hydroxy-3-phenylpropanamide], for which the negative logarithm of the IC50 (pIC50) was 7.66.

As to `O=C(NO)C(Cc1ccccc1)n1ncc2cc(-c3ccncc3)ccc21` (centres unmarked) [Compound I-0011, N-hydroxy-3-phenyl-2-(5-pyridin-4-yl-1H-indazol-1-yl)propanamide], the pIC50 is 7.06.

Take `CCc1ccc2cnn(C(Cc3ccccc3)C(=O)NO)c2c1` (centres unmarked) [Compound I-0018, 2-(6-Ethyl-1H-indazol-1-yl)-N-hydroxy-3-phenylpropanamide]: the negative logarithm of the IC50 (pIC50) is 6.35.

With `O=C(NO)C(Cc1ccccc1)n1nc2ccc(-c3ccccc3)cc2c1C#CC1CC1` (centres unmarked) [Compound I-0025, 2-[3-(Cyclopropylethynyl)-5-phenyl-2H-indazol-2-yl]-hydroxy-3-phenylpropanamide], the negative logarithm of the IC50 (pIC50) was 6.87.

Still in this assay, the particulars now being: class symbols, Table 14; read-out: HDAC8 IC50.
For `O=C(NO)C(Cc1ccccc1)n1ncc2cc(Cl)ccc21` (centres unmarked) [Compound I-0001, 2-(5-Chloro-1H-indazol-1-yl)-N-hydroxy-3-phenylpropanamide], the pIC50 was 6.70 to 7.30.

For `O=C(NO)C(Cc1ccccc1)n1cc2ccccc2n1` (centres unmarked) [Compound I-0002, N-hydroxy-2-(2H-indazol-2-yl)-3-phenylpropanamide], the negative logarithm of the IC50 (pIC50) was 6.30 to 6.70.

Take `O=C(NO)C(Cc1ccccc1)n1cc2cc(Cl)ccc2n1` (centres unmarked) [Compound I-0003, 2-(5-Chloro-2H-indazol-2-yl)-N-hydroxy-3-phenylpropanamide]: the negative logarithm of the IC50 (pIC50) is 6.30 to 6.70.

In the case of `O=C(NO)C(Cc1ccccc1)n1cc2ccc(Br)cc2n1` (centres unmarked) [Compound I-0004, 2-(6-bromo-2H-indazol-2-yl)-N-hydroxy-3-phenylpropanamide], the negative logarithm of the IC50 (pIC50) is 6.30 to 6.70.

On to `O=C(NO)C(Cc1ccccc1)n1nc2ccc(Cl)cc2c1C#CC1CC1` (centres unmarked) [Compound I-0005, 2-[5-Chloro-3-(cyclopropylethynyl)-2H-indazol-2-yl]-N-hydroxy-3-phenylpropanamide], for which the pIC50 is at least 7.30.

In the case of `O=C(NO)C(Cc1ccccc1)n1cc2ccc(-c3ccccc3)cc2n1` (centres unmarked) [Compound I-0006, N-hydroxy-3-phenyl-2-(6-phenyl-2H-indazol-2-yl)propanamide], the negative logarithm of the IC50 (pIC50) is 6.30 to 6.70.

As to `O=C(NO)C(Cc1ccccc1)n1cc2ccc(-c3cncnc3)cc2n1` (centres unmarked) [Compound I-0007, N-hydroxy-3-phenyl-2-(6-(pyrimidin-5-yl)-2H-indazol-2-yl)propanamide], the pIC50 is 6.30 to 6.70.

With `O=C(NO)C(Cc1ccccc1)n1cc2ccc(-c3cccnc3)cc2n1` (centres unmarked) [Compound I-0008, N-hydroxy-3-phenyl-2-(6-(pyridin-3-yl)-2H-indazol-2-yl)propanamide], the pIC50 was 6.30 to 6.70.

For the molecule `O=C(NO)C(Cc1ccccc1)n1nc(C#CC2CC2)c2cc(Cl)ccc21` (centres unmarked) [Compound I-0009, 2-(5-chloro-3-(cyclopropylethynyl)-1H-indazol-1-yl)-N-hydroxy-3-phenylpropanamide], the pIC50 is 6.70 to 7.30.

As to `Cn1nccc1-c1ccc2c(cnn2C(Cc2ccccc2)C(=O)NO)c1` (centres unmarked) [Compound I-0010, N-hydroxy-2-(5-(1-methyl-1H-pyrazol-5-yl)-1H-indazol-1-yl)-3-phenylpropanamide], the pIC50 was 6.70 to 7.30.

For the molecule `O=C(NO)C(Cc1ccccc1)n1ncc2cc(-c3ccncc3)ccc21` (centres unmarked) [Compound I-0011, N-hydroxy-3-phenyl-2-(5-pyridin-4-yl-1H-indazol-1-yl)propanamide], the pIC50 is 6.70 to 7.30.

As for `O=C(NO)C(Cc1ccccc1)n1ncc2cc(-c3cncnc3)ccc21` (centres unmarked) [Compound I-0012, N-hydroxy-3-phenyl-2-(5-(pyrimidin-5-yl)-1H-indazol-1-yl)propanamide], the negative logarithm of the IC50 (pIC50) is 6.70 to 7.30.

Turning to `O=C(NO)C(Cc1ccccc1)n1ncc2cc(-c3ccccc3)ccc21` (centres unmarked) [Compound I-0013, N-hydroxy-3-phenyl-2-(5-phenyl-1H-indazol-1-yl)propanamide], the negative-log IC50 (pIC50) was 6.30 to 6.70.

In the case of `O=C(NO)C(Cc1ccccc1)n1ncc2cc(-c3c(F)cccc3F)ccc21` (centres unmarked) [Compound I-0014, 2-(5-(2,6-difluorophenyl)-1H-indazol-1-yl)-N-hydroxy-3-phenylpropanamide], the pIC50 was 6.30 to 6.70.

In the case of `N#Cc1ccc(-c2ccc3c(cnn3C(Cc3ccccc3)C(=O)NO)c2)cc1` (centres unmarked) [Compound I-0015, 2-(5-(4-cyanophenyl)-1H-indazol-1-yl)-N-hydroxy-3-phenylpropanamide], the pIC50 is 6.30 to 6.70.

Regarding `Cc1ccc2c(cnn2C(Cc2ccccc2)C(=O)NO)c1` (centres unmarked) [Compound I-0016, N-hydroxy-2-(5-methyl-1H-indazol-1-yl)-3-phenylpropanamide], the pIC50 is 6.70 to 7.30.

`O=C(NO)C(Cc1ccccc1)n1ncc2cc(Br)ccc21` (centres unmarked) [Compound I-0017, 2-(5-bromo-1H-indazol-1-yl)-N-hydroxy-3-phenylpropanamide]: the pIC50 is 6.70 to 7.30.

For the molecule `CCc1ccc2cnn(C(Cc3ccccc3)C(=O)NO)c2c1` (centres unmarked) [Compound I-0018, 2-(6-Ethyl-1H-indazol-1-yl)-N-hydroxy-3-phenylpropanamide], the negative logarithm of the IC50 (pIC50) was 6.30 to 6.70.

Take `O=C(NO)C(Cc1ccccc1)n1ncc2cc(C3CC3)ccc21` (centres unmarked) [Compound I-0019, 2-(5-cyclopropyl-1H-indazol-1-yl)-N-hydroxy-3-phenylpropanamide]: the pIC50 is under 6.30.

Consider `CCc1ccc2c(cnn2C(Cc2ccccc2)C(=O)NO)c1` (centres unmarked) [Compound I-0020, 2-(5-ethyl-1H-indazol-1-yl)-N-hydroxy-3-phenylpropanamide], for which the negative-log IC50 (pIC50) was 6.30 to 6.70.

Turning to `O=C(NO)C(Cc1ccccc1)n1ncc2ccc(Br)cc21` (centres unmarked) [Compound I-0021, 2-(6-bromo-1H-indazol-1-yl)-N-hydroxy-3-phenylpropanamide], the negative-log IC50 (pIC50) is under 6.30.

With `O=C(NO)C(Cc1ccccc1)n1ncc2ccc(-c3ccccc3)cc21` (centres unmarked) [Compound I-0022, N-hydroxy-3-phenyl-2-(6-phenyl-1H-indazol-1-yl)propanamide], the pIC50 is under 6.30.

On to `O=C(NO)C(Cc1ccccc1)n1ncc2ccc(-c3cncnc3)cc21` (centres unmarked) [Compound I-0023, N-hydroxy-3-phenyl-2-(6-(pyrimidin-5-yl)-1H-indazol-1-yl)propanamide], for which the pIC50 is under 6.30.

As for `O=C(NO)C(Cc1ccccc1)n1cc2cc(Br)ccc2n1` (centres unmarked) [Compound I-0024, 2-(5-bromo-2H-indazol-2-yl)-N-hydroxy-3-phenylpropanamide], the pIC50 is under 6.30.

With `O=C(NO)C(Cc1ccccc1)n1nc2ccc(-c3ccccc3)cc2c1C#CC1CC1` (centres unmarked) [Compound I-0025, 2-[3-(Cyclopropylethynyl)-5-phenyl-2H-indazol-2-yl]-hydroxy-3-phenylpropanamide], the pIC50 was 6.70 to 7.30.

`NC(=O)c1ccc(-c2ccc3nn(C(Cc4ccccc4)C(=O)NO)c(C#CC4CC4)c3c2)cc1` (centres unmarked) [Compound I-0026, 4-(3-(cyclopropylethynyl)-2-(1-(hydroxyamino)-1-oxo-3-phenylpropan-2-yl)-2H-indazol-5-yl)benzamide]: the pIC50 was at least 7.30.

For the molecule `O=C(NO)C(Cc1ccccc1)n1nc2ccc(-c3c(F)cccc3F)cc2c1C#CC1CC1` (centres unmarked) [Compound I-0027, 2-(3-(cyclopropylethynyl)-5-(2,6-difluorophenyl)-2H-indazol-2-yl)-N-hydroxy-3-phenylpropanamide], the pIC50 is 6.30 to 6.70.

For the molecule `Cn1nccc1-c1ccc2nn(C(Cc3ccccc3)C(=O)NO)c(C#CC3CC3)c2c1` (centres unmarked) [Compound I-0028, 2-(3-(cyclopropylethynyl)-5-(1-methyl-1H-pyrazol-5-yl)-2H-indazol-2-yl)-N-hydroxy-3-phenylpropanamide], the pIC50 is at least 7.30.

`O=C(NO)C(Cc1ccccc1)n1nc2ccc(-c3ccncc3)cc2c1C#CC1CC1` (centres unmarked) [Compound I-0029, 2-(3-(cyclopropylethynyl)-5-(pyridin-4-yl)-2H-indazol-2-yl)-N-hydroxy-3-phenylpropanamide]: the pIC50 is 6.70 to 7.30.

`O=C(NO)C(Cc1ccccc1)n1nc2ccc(-c3cncnc3)cc2c1C#CC1CC1` (centres unmarked) [Compound I-0030, 2-(3-(cyclopropylethynyl)-5-(pyrimidin-5-yl)-2H-indazol-2-yl)-N-hydroxy-3-phenylpropanamide]: the pIC50 is at least 7.30.

Take `COc1ncc(-c2ccc3nn(C(Cc4ccccc4)C(=O)NO)c(C#CC4CC4)c3c2)cn1` (centres unmarked) [Compound I-0031, 2-(3-(cyclopropylethynyl)-5-(2-methoxypyrimidin-5-yl)-2H-indazol-2-yl)-N-hydroxy-3-phenylpropanamide]: the pIC50 was at least 7.30.

Take `Cc1ccc2nn(C(Cc3ccccc3)C(=O)NO)c(C#CC3CC3)c2c1` (centres unmarked) [Compound I-0032, 2-(3-(cyclopropylethynyl)-5-methyl-2H-indazol-2-yl)-N-hydroxy-3-phenylpropanamide]: the pIC50 was at least 7.30.

Take `N/C(=N\O)c1ccc(-c2ccc3nn(C(Cc4ccccc4)C(=O)NO)cc3c2)cc1` (centres unmarked) [Compound I-0033, (Z)-N-hydroxy-2-(5-(4-(N′-hydroxy-carbamimidoyl)phen-yl)-2H-indazol-2-yl)-3-phenylpropanamide]: the negative logarithm of the IC50 (pIC50) was 6.70 to 7.30.

For the molecule `Cn1nccc1-c1ccc2nn(C(Cc3ccccc3)C(=O)NO)cc2c1` (centres unmarked) [Compound I-0034, N-hydroxy-2-(5-(1-methyl-1H-pyrazol-5-yl)-2H-indazol-2-yl)-3-phenylpropanamide], the negative logarithm of the IC50 (pIC50) is 6.30 to 6.70.

`COc1ncc(-c2ccc3nn(C(Cc4ccccc4)C(=O)NO)cc3c2)cn1` (centres unmarked) [Compound I-0035, N-hydroxy-2-(5-(2-methoxypyrimidin-5-yl)-2H-indazol-2-yl)-3-phenylpropanamide]: the pIC50 was 6.30 to 6.70.

(Values after US10723705B2, “Heterocyclic compounds and uses thereof” (Incyte Corporation, priority 2015, dated 2020).)
